Patent US9133160B2, “Substituted benzimidazole and imidazopyridine compounds useful as CYP17 modulators” (Bristol-Meyers Squibb Company, priority 2010, dated 2015)

target: Human CYP17 (Homo sapiens (Human), UniProt P05093); experiment: CYP17 Total SPA Assay; format: biochemical; conditions: microsomes from HEK2 cells stably transfected with CYP17; 3H-Pregnenolone 1 uM, NADPH 2 mM; read-out: Human CYP17 Inhibition SPA IC50
Experimental: CYP17 Total SPA Assay The assays were performed in U-bottom 384-well optiplates. […] The reaction was initiated by the combination of the microsomes and substrates in wells containing compound. The reaction was incubated at room temperature for 45 minutes and terminated by adding 7.5 μl of 0.2N HCl to each well. […] The plate was sealed and incubated overnight with shaking at 4° C. The beads were allowed to settle in the plate for 1 hour and the plate read on a TOPCOUNT® (Perkin-Elmer) plate reader. […] The final concentration of reagents in the assays are NADPH, 2 mM; 3H-Pregnenolone, 1 uM; microsomes, 1.25 ug/ml; […] Dose response curves were generated to determine the concentration required inhibiting 50% of enzyme activity (IC50). Compounds were dissolved at 10 mM in dimethylsulfoxide (DMSO) and evaluated at eleven concentrations, each in duplicate. IC50 values were derived by non-linear regression analysis. Table 3 below lists the IC50 values for the following examples of this invention measured in the Total CYP17 SPA Assay hereinabove.

Sequence of Human CYP17 (P05093 whole entry): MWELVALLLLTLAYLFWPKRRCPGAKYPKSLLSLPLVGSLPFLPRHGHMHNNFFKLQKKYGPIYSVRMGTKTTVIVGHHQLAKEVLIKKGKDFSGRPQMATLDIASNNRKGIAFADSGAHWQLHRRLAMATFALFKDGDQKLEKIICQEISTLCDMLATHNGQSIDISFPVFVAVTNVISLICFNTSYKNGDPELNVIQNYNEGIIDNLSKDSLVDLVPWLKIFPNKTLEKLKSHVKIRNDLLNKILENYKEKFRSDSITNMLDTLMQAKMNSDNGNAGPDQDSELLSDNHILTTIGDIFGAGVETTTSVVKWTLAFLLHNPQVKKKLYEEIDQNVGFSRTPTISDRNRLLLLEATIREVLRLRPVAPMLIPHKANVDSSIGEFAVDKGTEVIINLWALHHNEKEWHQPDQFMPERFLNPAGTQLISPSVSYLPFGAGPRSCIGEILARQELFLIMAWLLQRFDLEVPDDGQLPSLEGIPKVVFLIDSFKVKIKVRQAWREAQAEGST

| Compound | IC50 [µM] |
| --- | --- |
| Cc1ccncc1-c1cccc2c1ncn2-c1ccccn1 [Example 2, 4-(4-methylpyridin-3-yl)-1-(pyridin-2-yl)-1H-benzo[d]imidazole] | 0.0058 |
| Cc1ccncc1-c1cccc2c1ncn2-c1cnccn1 [Example 4, 4-(4-methylpyridin-3-yl)-1-(pyrazin-2-yl)-1H-benzo[d]imidazole] | 0.037 |
| Cc1ccncc1-c1cccc2c1ncn2-c1cccnn1 [Example 6, 4-(4-methylpyridin-3-yl)-1-(pyridazin-3-yl)-1H-benzo[d]imidazole] | 0.25 |
| Cc1ccncc1-c1cccc2c1ncn2-c1cccc(C(F)(F)F)n1 [Example 9, 4-(4-methylpyridin-3-yl)-1-(6-(trifluoromethyl)pyridin-2-yl)-1H-benzo[d]imidazole] | 0.04 |
| Cc1ccncc1-c1cccc2c1ncn2-c1cccc(F)n1 [Example 14, 1-(6-fluoropyridin-2-yl)-4-(4-methylpyridin-3-yl)-1H-benzo[d]imidazole] | 0.011 |
| Cc1ccncc1-c1cccc2c1ncn2-c1ncc(F)cc1F [Example 15, 1-(3,5-difluoropyridin-2-yl)-4-(4-methylpyridin-3-yl)-1H-benzo[d]imidazole] | 0.758 |
| Cc1ccncc1-c1cccc2c1ncn2-c1ccncn1 [Example 29, 4-(4-methylpyridin-3-yl)-1-(pyrimidin-4-yl)-1H-benzo[d]imidazole] | 0.656 |
| Cc1ccncc1-c1cccc2c1ncn2-c1ccncc1 [Example 30, 4-(4-methylpyridin-3-yl)-1-(pyridin-4-yl)-1H-benzo[d]imidazole] | 0.405 |
| Cc1ccncc1-c1cccc2c1ncn2CC(F)(F)F [Example 31, 4-(4-Methylpyridin-3-yl)-1-(2,2,2-trifluoroethyl)-1H-benzo[d]imidazole] | 0.012 |
| Cc1ccncc1-c1cccc2c1ncn2CC#N [Example 35, 2-(4-(4-Methylpyridin-3-yl)-1H-benzo[d]imidazol-1-yl)acetonitrile] | 0.33 |
| Cc1ccncc1-c1cccc2c1ncn2C1CC1 [Example 37, 1-Cyclopropyl-4-(4-methylpyridin-3-yl)-1H-benzo[d]imidazole] | 0.396 |
| FC(F)(F)Cn1cnc2c(-c3cnccc3Cl)cccc21 [Example 39, 4-(4-Chloropyridin-3-yl)-1-(2,2,2-trifluoroethyl)-1H-benzo[d]imidazole] | 0.361 |
| Nc1ncncc1-c1cccc2c1ncn2CC(F)(F)F [Example 44, 5-(1-(2,2,2-Trifluoroethyl)-1H-benzo[d]imidazol-4-yl)pyrimidin-4-amine] | 0.674 |
| CCOc1ncncc1-c1cccc2c1ncn2CC(F)(F)F [Example 45, 4-(4-Ethoxypyrimidin-5-yl)-1-(2,2,2-trifluoroethyl)-1H-benzo[d]imidazole] | 0.135 |
| Nc1ncncc1-c1cccc2c1ncn2-c1ccc(F)cc1F [Example 46, 5-(1-(2,4-Difluorophenyl)-1H-benzo[d]imidazol-4-yl)pyrimidin-4-amine] | 0.797 |

system: testosterone levels; experiment: 1-Day Cyno PK/PD Study (plasma testosterone); format: in vivo; conditions: cynomolgus monkeys, single oral dose 2 mg/kg in 80% PEG-400/water, 24 hour period
Experimental: Example 31 was formulated in 80% PEG-400/water at a volume of 1 mL/kg of monkey and administered orally at 2 mg/kg. The formulation was then dosed orally at time=0 hours and blood samples were taken over a 24 hour period to monitor for drug exposure and testosterone levels. (♦) Example 31 (nM); (▴) testosterone (ng/dL).
1-Day Cyno PK/PD Study Protocol
Animals: All procedures involving animals and their care were conducted in conformity with the guidelines that are in compliance with the Bristol-Myers Squibb Institutional Animal Care and Use Committee. Fully mature male cynomolgus monkeys (>4 yrs of age; 5-6 kg) were from an in-house colony. All the monkeys used had chronically implanted femoral vein access ports. For oral studies, all animals were fasted overnight prior to dosing and were fed 4 hr after dosing. […]
Sampling: Blood samples were collected from the femoral port, at 15, 30, and 45 min, and 1, 2, 4, 6, 8, 12, 24, 30, and 48 hr after oral administration. […] The plasma fraction was immediately separated by centrifugation (14,000 rpm, 10 min, 4° C.), frozen on dry ice, and stored at −20° C. until the samples were analyzed.
Analysis of Tested Compound: Plasma samples were thawed and treated with two volumes of acetonitrile containing internal standard. After centrifugation to remove precipitated proteins, an aliquot of supernatant was analyzed by LC/MS/MS. […]

| Compound | testosterone levels [ng/dL] |
| --- | --- |
| Cc1ccncc1-c1cccc2c1ncn2CC(F)(F)F [Example 31, 4-(4-Methylpyridin-3-yl)-1-(2,2,2-trifluoroethyl)-1H-benzo[d]imidazole] | ~15 |
